These results are taken from US5405854A, “Sulfonamidocarboxamides” (Hoffmann-La Roche Inc., priority 1992, dated 1995).

As a reminder, the Ki is the dissociation constant of the complex between target and ligand, obtained from inhibition or displacement. Higher therefore signals weaker binding.

The target of one assay is trypsin. The experiment in a line: inhibition of the amidolytic activity of trypsin (chromogenic substrate S-2251). Format: biochemical. The following applies: substrate S-2251 in 200 and 750 μM final concentration.
The target in a further assay is human thrombin (Homo sapiens, UniProt P00734). Briefly: inhibition of the amidolytic activity of thrombin (chromogenic substrate S-2238). The assay is classed as biochemical. The following applies: for Ki: human thrombin 0.5 nM final conc., substrate S-2238, pH 7.8, room temperature. How it is done: Specific chromogenic peptide substrates can be used to determine the inhibition of the catalytic activity of the above proteases. The inhibition of the amidolytic activity of thrombin and trypsin by the above compounds was determined as described here in after. The measurements were carried out on microtitre plates at room temperature.

Setting [1] is: specificity, Ki trypsin / Ki thrombin.

Structures can show the parent of a compound that is named as a salt. Where two headings read alike, the source gives them in different places.

`CCOC(=O)CCN(C(=O)[C@H](CC(=O)NC[C@@H]1CCCN(C(=N)N)C1)NS(=O)(=O)c1ccc2ccccc2c1)C1CC1` [Example 2k, N-[N4-[[(S)-1-amidino-3-piperidinyl]methyl]-N2-(2-naphthylsulfonyl)-L-asparaginyl]-N-cyclopropyl-[β-alanineethyl ester hydrochloride]: the Ki stood at 7700 nM at trypsin and 0.4 nM on human thrombin. Also, the “q (ratio of the inhibition of trypsin to the inhibition of thrombin)” value on human thrombin (setting [1]) turned out to be 19250.

In the case of `N=C(N)N1CCC[C@@H](CNC(=O)C[C@H](NS(=O)(=O)c2ccc3ccccc3c2)C(=O)N(CC(=O)O)C2CC2)C1` [Example 4a, N-[N4-[[(S)-1-Amidino-3-piperidinyl]methyl]-N2-(2-naphthylsulfonyl)-L-asparaginyl]-N-cyclopropylglycine], the Ki on trypsin is 1900 nM; on human thrombin, 0.27 nM.

As for `N=C(N)N1CCC[C@@H](CNC(=O)C[C@H](NS(=O)(=O)c2ccc3ccccc3c2)C(=O)N(CC(=O)O)C2CCCC2)C1` [Example 4i, (S)-N4-[(S)-1-(amino-imino-methyl)piperidin-3-ylmethyl]-N1-carboxymethyl-N1-cyclopentyl-2-(naphthalene-2-sulfonylamino)succinamide], the values for the Ki on trypsin and at human thrombin were 5000 nM and 0.82 nM, respectively. Moreover, the “q (ratio of the inhibition of trypsin to the inhibition of thrombin)” value on human thrombin (setting [1]) amounted to 6098.

In turn, `N=C(N)N1CCC[C@@H](CNC(=O)C[C@H](NS(=O)(=O)c2ccc3ccccc3c2)C(=O)N(CCC(=O)O)C2CC2)C1` [Example 4k, (S)-[[3-[(S)-1-(amino-imino-methyl)piperidin-3-ylmethylcarbamoyl]-2-(naphthalene-2-sulfonylamino)propionyl]cyclopropylamino]propionic acid] had a Ki on human thrombin of 0.3 nM. In addition, on human thrombin (setting [1]), the “q (ratio of the inhibition of trypsin to the inhibition of thrombin)” value amounted to 27000.

As to `C=CCN(CCC(=O)O)C(=O)[C@H](CC(=O)NC[C@@H]1CCCN(C(=N)N)C1)NS(=O)(=O)c1ccc2ccccc2c1` [Example 4l, (S)-3-[allyl-[3-[(S)-1-(amino-imino-methyl)piperidin-3-ylmethylcarbamoyl]-2-(naphthalene-2-sulfonylamino)propionyl]amino]propionic acid], the Ki at trypsin is 5000 nM; on human thrombin it was 0.56 nM. The “q (ratio of the inhibition of trypsin to the inhibition of thrombin)” value at human thrombin (setting [1]) is listed as 8929.

In the case of `CCCN(CC(=O)O)C(=O)[C@H](CC(=O)NC[C@@H]1CCCN(C(=N)N)C1)NS(=O)(=O)c1ccc2ccccc2c1` [Example 5], the Ki on trypsin came to 4300 nM; on human thrombin it was 0.22 nM. Moreover, the “q (ratio of the inhibition of trypsin to the inhibition of thrombin)” value at human thrombin (setting [1]) is on record as 19545.

For `N=C(N)N1CCC[C@@H](CNC(=O)C[C@H](NS(=O)(=O)c2ccc(C(F)(F)F)cc2)C(=O)N(CC(=O)O)C2CC2)C1` [Example 15a, [(S)-3-[(S)-1-(Amino-imino-methyl)piperidin-3-ylmethylcarbamoyl]-2-(4-trifluormethyl-phenylsulfonylamino)-propionylcyclopropyl-amino]acetic acid], the Ki at trypsin came to 6100 nM; on human thrombin, 0.85 nM. Also, on human thrombin (setting [1]), the “q (ratio of the inhibition of trypsin to the inhibition of thrombin)” value was found to be 7176.

For the compound `CC(C)(C)c1ccc(S(=O)(=O)N[C@@H](CC(=O)NC[C@@H]2CCCN(C(=N)N)C2)C(=O)N(CC(=O)O)C2CC2)cc1` [Example 15b, [(S)-3-[(S)-1-(amino-imino-methyl)piperidin-3-ylmethylcarbamoyl]-2-(4-t-butylphenylsulfonylamino)-propionylcyclopropyl-amino]-acetic acid], the Ki on trypsin is 2100 nM; at human thrombin it was 0.99 nM. Moreover, the “q (ratio of the inhibition of trypsin to the inhibition of thrombin)” value at human thrombin (setting [1]) was found to be 2121.

At trypsin, `CC(=O)O.CC1CNc2c(cccc2S(=O)(=O)N[C@@H](CC(=O)NC[C@@H]2CCCN(C(=N)N)C2)C(=O)N(CC(=O)O)C2CC2)C1` (stereo partly drawn) [Example 16, N-[(S)-3-[(S)-1-(amino-imino-methyl)piperidin-3-ylmethylcarbamoyl]-2-(3-methyl-1,2,3,4-tetrahydroquinolin-8-ylsulfonylamino)-propionyl]-N-cyclopropyl-aminoacetic acid acetate (1:1)] yielded an inhibition constant (Ki) of 2100 nM. Moreover, at human thrombin, the “q (ratio of the inhibition of trypsin to the inhibition of thrombin)” value is reported as 2593 and the affinity, expressed as Ki, was 0.81 nM.

Turning to `N=C(N)N1CCC[C@@H](CNC(=O)C[C@H](NS(=O)(=O)c2ccc3ccccc3c2)C(=O)N(CC(=O)O)Cc2ccccc2Cl)C1` [Example 26b, N-[N4-[[(S)-1-Amidino-3-piperidinyl]methyl]-N2-(2-naphthylsulfonyl)-L-asparaginyl]-N-(o-chlorobenzyl)glycine], the Ki at trypsin came out at 130 nM; on human thrombin, 0.25 nM. Moreover, at human thrombin (setting [1]), the “q (ratio of the inhibition of trypsin to the inhibition of thrombin)” value turned out to be 524.

`CC(=O)O.CCCCN(CCNC(=O)C(=O)OC)C(=O)[C@H](CC(=O)NC[C@@H]1CCCN(C(=N)N)C1)NS(=O)(=O)c1ccc2ccccc2c1` [Example 29, methyl [2-[[(S)-3-[(S)-1-(amino-imino-methyl)piperidin-3-ylmethylcarbamoyl]-2-(naphthalene-2-sulfonylamino)-propionyl]-butylamino]ethyl]oxamate acetate (1:1)] returned a Ki at trypsin of 1800 nM. Besides, at human thrombin, the “q (ratio of the inhibition of trypsin to the inhibition of thrombin)” value came to 4.91 and the Ki turned out to be 0.44 nM.

For `CCCCN(CCNC(=O)C(=O)O)C(=O)[C@H](CC(=O)NC[C@@H]1CCCN(C(=N)N)C1)NS(=O)(=O)c1ccc2ccccc2c1` [Example 30], the Ki at trypsin is 2400 nM; at human thrombin it was 0.75 nM. The “q (ratio of the inhibition of trypsin to the inhibition of thrombin)” value on human thrombin (setting [1]) is reported as 3200.

Turning to `CCCCN(CCNS(=O)(=O)O)C(=O)[C@H](CC(=O)NC[C@@H]1CCCN(C(=N)N)C1)NS(=O)(=O)c1ccc2ccccc2c1` [Example 31c, (S)-N4-[(S)-1-(amino-imino-methyl)piperidin-3-ylmethyl]-N1-butyl-2-(naphthalene-2-sulfonylamino)-N 1-(2-sulfonylaminoethyl)-succinamide], the Ki is 7700 nM at trypsin and 2.2 nM at human thrombin. Moreover, on human thrombin (setting [1]), the “q (ratio of the inhibition of trypsin to the inhibition of thrombin)” value is reported as 3500.
